# Measured values: patent US4720543A, “1a-7-substituted derivatives of mitomycin and uses thereof” (priority 1985, dated 1988)
# Assays:
# Test in all cases: antibiotic activity, bacterial growth inhibition in culture
# Type in all cases: cell-based
# Klebsiella Pneumonia = system: Klebsiella Pneumonia
# Procedure: (§1) Bacteria were grown in a standard growth culture at pH 7.2. After the cultures were incubated at 37° C. overnight and diluted into fresh medium, controls and the test antibiotics dissolved in 0.3% hydroxy propylcellulose (HPC) were added at various concentrations and then reincubated overnight. The measure of antibiotic activity was determined by the amount of bacterial growth inhibition as shown by measurement of the optical density at 660 nm.
# Listeria Sp. = system: Listeria Sp.
# Procedure: as §1
# Pseudomonas Sp. = system: Pseudomonas Sp.
# Procedure: as §1
# Staphylococcus Sp. = system: Staphylococcus Sp.
# Procedure: as §1
# TA100 (Salmonella Sp.) = system: TA100 (Salmonella Sp.)
# Procedure: as §1
# W3100 (E. coli) = settings: 0.04 mcg/ml
# Procedure: as §1
structure (smiles),measurement,setting,value
"CO[C@@]12[C@H](COC(N)=O)C3=C(C(=O)C(C)=C(N)C3=O)N1C[C@H]1[C@@H]2N1C(=S)N[C@@H]1O[C@H](COC(C)=O)[C@@H](OC(C)=O)[C@H](OC(C)=O)[C@H]1NC(C)=O [M-TAG, 1a(N-2-acetamido-3,4,6-tri-O-acetyl-2-deoxy-D-glucopyranosylthiocarbamoyl)-mitomycin C]",optical density at 660 nm (figure in parentheses),Klebsiella Pneumonia; 0.04 mcg/ml,0.66
same,optical density at 660 nm (figure in parentheses),Klebsiella Pneumonia; 0.4 mcg/ml,0.62
same,optical density at 660 nm (figure in parentheses),Klebsiella Pneumonia; 4.0 mcg/ml,0.59
same,optical density at 660 nm (figure in parentheses),Klebsiella Pneumonia; 40 mcg/ml,0.40
same,optical density at 660 nm (figure in parentheses),Klebsiella Pneumonia; 400 mcg/ml,0.04
same,inhibition at 0.04 µg/mL,"Klebsiella Pneumonia; Klebsiella pneumoniae, 0.04 mcg/ml, 37° C. overnight, read-out: amount of bacterial growth inhibition (first figure)",22%
same,inhibition at 0.4 µg/mL,"Klebsiella Pneumonia; Klebsiella pneumoniae, 0.4 mcg/ml, 37° C. overnight, read-out: amount of bacterial growth inhibition (first figure)",24%
same,inhibition at 4 µg/mL,"Klebsiella Pneumonia; Klebsiella pneumoniae, 4.0 mcg/ml, 37° C. overnight, read-out: amount of bacterial growth inhibition (first figure)",26%
same,inhibition at 40 µg/mL,"Klebsiella Pneumonia; Klebsiella pneumoniae, 40 mcg/ml, 37° C. overnight, read-out: amount of bacterial growth inhibition (first figure)",40%
same,inhibition at 400 µg/mL,"Klebsiella Pneumonia; Klebsiella pneumoniae, 400 mcg/ml, 37° C. overnight, read-out: amount of bacterial growth inhibition (first figure)",92%
same,optical density at 660 nm (figure in parentheses),Listeria Sp.; 0.04 mcg/ml,0.59
same,optical density at 660 nm (figure in parentheses),Listeria Sp.; 0.4 mcg/ml,0.59
same,optical density at 660 nm (figure in parentheses),Listeria Sp.; 4.0 mcg/ml,0.59
same,optical density at 660 nm (figure in parentheses),Listeria Sp.; 40 mcg/ml,0.036
same,optical density at 660 nm (figure in parentheses),Listeria Sp.; 400 mcg/ml,0.00
same,inhibition at 0.04 µg/mL,"Listeria Sp.; Listeria, 0.04 mcg/ml, 37° C. overnight, read-out: amount of bacterial growth inhibition (first figure)",26%
same,inhibition at 0.4 µg/mL,"Listeria Sp.; Listeria, 0.4 mcg/ml, 37° C. overnight, read-out: amount of bacterial growth inhibition (first figure)",26%
same,inhibition at 4 µg/mL,"Listeria Sp.; Listeria, 4.0 mcg/ml, 37° C. overnight, read-out: amount of bacterial growth inhibition (first figure)",26%
same,inhibition at 40 µg/mL,"Listeria Sp.; Listeria, 40 mcg/ml, 37° C. overnight, read-out: amount of bacterial growth inhibition (first figure)",92%
same,inhibition at 400 µg/mL,"Listeria Sp.; Listeria, 400 mcg/ml, 37° C. overnight, read-out: amount of bacterial growth inhibition (first figure)",100%
same,optical density at 660 nm (figure in parentheses),Pseudomonas Sp.; 0.04 mcg/ml,0.52
same,optical density at 660 nm (figure in parentheses),Pseudomonas Sp.; 0.4 mcg/ml,0.35
same,optical density at 660 nm (figure in parentheses),Pseudomonas Sp.; 4.0 mcg/ml,0.13
same,optical density at 660 nm (figure in parentheses),Pseudomonas Sp.; 40 mcg/ml,0.11
same,optical density at 660 nm (figure in parentheses),Pseudomonas Sp.; 400 mcg/ml,0.11
same,inhibition at 0.04 µg/mL,"Pseudomonas Sp.; Pseudomonas, 0.04 mcg/ml, 37° C. overnight, read-out: amount of bacterial growth inhibition (first figure)",30%
same,inhibition at 0.4 µg/mL,"Pseudomonas Sp.; Pseudomonas, 0.4 mcg/ml, 37° C. overnight, read-out: amount of bacterial growth inhibition (first figure)",45%
same,inhibition at 4 µg/mL,"Pseudomonas Sp.; Pseudomonas, 4.0 mcg/ml, 37° C. overnight, read-out: amount of bacterial growth inhibition (first figure)",75%
same,inhibition at 40 µg/mL,"Pseudomonas Sp.; Pseudomonas, 40 mcg/ml, 37° C. overnight, read-out: amount of bacterial growth inhibition (first figure)",75%
same,inhibition at 400 µg/mL,"Pseudomonas Sp.; Pseudomonas, 400 mcg/ml, 37° C. overnight, read-out: amount of bacterial growth inhibition (first figure)",78%
same,optical density at 660 nm (figure in parentheses),Staphylococcus Sp.; 0.04 mcg/ml,0.52
same,optical density at 660 nm (figure in parentheses),Staphylococcus Sp.; 0.4 mcg/ml,0.02
same,optical density at 660 nm (figure in parentheses),Staphylococcus Sp.; 4.0 mcg/ml,0.018
same,optical density at 660 nm (figure in parentheses),Staphylococcus Sp.; 40 mcg/ml,0.03
same,optical density at 660 nm (figure in parentheses),Staphylococcus Sp.; 400 mcg/ml,0.00
same,inhibition at 0.04 µg/mL,"Staphylococcus Sp.; Staphylococcus, 0.04 mcg/ml, 37° C. overnight, read-out: amount of bacterial growth inhibition (first figure)",30%
same,inhibition at 0.4 µg/mL,"Staphylococcus Sp.; Staphylococcus, 0.4 mcg/ml, 37° C. overnight, read-out: amount of bacterial growth inhibition (first figure)",95%
same,inhibition at 4 µg/mL,"Staphylococcus Sp.; Staphylococcus, 4.0 mcg/ml, 37° C. overnight, read-out: amount of bacterial growth inhibition (first figure)",96%
same,inhibition at 40 µg/mL,"Staphylococcus Sp.; Staphylococcus, 40 mcg/ml, 37° C. overnight, read-out: amount of bacterial growth inhibition (first figure)",94%
same,inhibition at 400 µg/mL,"Staphylococcus Sp.; Staphylococcus, 400 mcg/ml, 37° C. overnight, read-out: amount of bacterial growth inhibition (first figure)",100%
same,optical density at 660 nm (figure in parentheses),TA100 (Salmonella Sp.); 0.04 mcg/ml,0.34
same,optical density at 660 nm (figure in parentheses),TA100 (Salmonella Sp.); 0.4 mcg/ml,0.11
same,optical density at 660 nm (figure in parentheses),TA100 (Salmonella Sp.); 4.0 mcg/ml,0.97
same,optical density at 660 nm (figure in parentheses),TA100 (Salmonella Sp.); 40 mcg/ml,0.97
same,optical density at 660 nm (figure in parentheses),TA100 (Salmonella Sp.); 400 mcg/ml,0.02
same,inhibition at 0.04 µg/mL,"TA100 (Salmonella Sp.); Salmonella, 0.04 mcg/ml, 37° C. overnight, read-out: amount of bacterial growth inhibition (first figure)",46%
same,inhibition at 0.4 µg/mL,"TA100 (Salmonella Sp.); Salmonella, 0.4 mcg/ml, 37° C. overnight, read-out: amount of bacterial growth inhibition (first figure)",78%
same,inhibition at 4 µg/mL,"TA100 (Salmonella Sp.); Salmonella, 4.0 mcg/ml, 37° C. overnight, read-out: amount of bacterial growth inhibition (first figure)",80%
same,inhibition at 40 µg/mL,"TA100 (Salmonella Sp.); Salmonella, 40 mcg/ml, 37° C. overnight, read-out: amount of bacterial growth inhibition (first figure)",80%
same,inhibition at 400 µg/mL,"TA100 (Salmonella Sp.); Salmonella, 400 mcg/ml, 37° C. overnight, read-out: amount of bacterial growth inhibition (first figure)",95%
same,optical density at 660 nm (figure in parentheses),W3100 (E. coli),0.48
